Assay results published in patent EP0272929B1, “Enkephalinase for therapeutic use” (GENENTECH, INC., priority 1986, dated 1988).
“Also recorded” adds a separate entry of the source.

Columns and labels:
[1] = molecular target: T1, purified rat kidney enkephalinase (Rattus norvegicus, UniProt P07861); assay type: biochemical; settings: peptide 10⁻⁴M, 50 ng enzyme, 30 minutes at 37°C
T1 construct: purified rat kidney enkephalinase (50 ng in 150 ul 50 mM, pH7.4 HEPES buffer containing 0.02% Triton X-100); from tissue; host or cells: rat kidney
T1 sequence (P07861 1-750): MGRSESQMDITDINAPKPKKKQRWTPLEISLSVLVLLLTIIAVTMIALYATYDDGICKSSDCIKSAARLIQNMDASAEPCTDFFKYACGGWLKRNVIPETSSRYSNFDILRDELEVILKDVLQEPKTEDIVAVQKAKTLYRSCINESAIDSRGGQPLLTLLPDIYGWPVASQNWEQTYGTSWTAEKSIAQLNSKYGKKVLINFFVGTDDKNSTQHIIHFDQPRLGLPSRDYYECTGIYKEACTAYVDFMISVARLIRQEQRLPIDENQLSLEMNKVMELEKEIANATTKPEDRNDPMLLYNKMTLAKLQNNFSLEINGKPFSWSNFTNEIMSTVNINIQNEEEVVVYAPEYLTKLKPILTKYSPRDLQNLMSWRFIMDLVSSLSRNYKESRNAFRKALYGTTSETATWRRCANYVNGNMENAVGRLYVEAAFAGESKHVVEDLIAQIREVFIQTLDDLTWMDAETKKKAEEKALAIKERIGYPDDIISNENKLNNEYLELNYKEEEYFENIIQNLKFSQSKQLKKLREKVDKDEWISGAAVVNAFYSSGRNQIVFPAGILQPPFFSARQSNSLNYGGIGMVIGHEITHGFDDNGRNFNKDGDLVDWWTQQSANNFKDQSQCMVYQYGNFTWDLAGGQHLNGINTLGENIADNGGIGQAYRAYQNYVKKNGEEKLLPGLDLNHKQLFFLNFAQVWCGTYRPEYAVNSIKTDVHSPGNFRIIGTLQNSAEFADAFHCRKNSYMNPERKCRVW

[2] = system: ferret tracheal smooth muscle; test: Isometric tension of isolated tracheal smooth muscle rings (contraction by peptides, effect of inhibitors); assay type: cell-based
Description: Twenty-seven ferrets were anesthetized with pentobarbital sodium (45-60 mg/kg, i.p.), and the trachea were removed. Transverse rings (8 mm long) were cut from the trachea and mounted in glass chambers filled with 14 ml of Krebs-Henseleit solution of the following composition (in mMoles/L): NaCl 118, KCl 5.9, CaCl₂ 2.5, MgSO₄ 1.2, NaH₂PO4 1.2, NaHCO₃ 25.5, glucose 5.6, 0.1% bovine serum albumin, and penicillin-streptomycin (100 Units/ml). The soluiton was maintained at 37°C and was aerated continuously in a mixture of 95% O₂-5% CO₂, which produced a pH of 7.4. Six tracheal rings were studied concurrently.
(§1) The tracheal rings were connected to strain gauges (Grass FT03) for continuous recording of isometric tension, and the rings were placed between two rectangular platinum electrodes (6 x 40 mm) for electrical field stimulation. The rings were initially stretched to a tension of 20 g for 30 seconds and were then allowed to equilibrate for 1 hour while resting tension was adjusted to 4 g (Skoogh, B-E. et al., J. Appl. Physiol. 53: 253-257 [1982]). During equilibration, the medium was changed every 15 minutes. […] Id.
The responsiveness to substance P (using concentrations ranging from 10⁻⁸ M to 10⁻⁵ M) and to leu-thiorphan and cumulative dose-response curves to substance P (Peninsula Labs) were obtained. Each succeeding concentration of substance P was added after contraction reached a plateau. After completion of the first dose-response curve to substance P, leu-thiorphan (10⁻⁵ M, Squibb Pharmaceutical) was added to the organ bath. Following a 15 minute incubation, a second dose-response curve to substance P was obtained.
The N-terminal fragment, substance P₁₋₉ was studied because enkephalinase cleaves substance P between the 9 and 10 positions (Matsas, R. et al., Proc. Natl. Acad. Sci. [USA] 80: 3111-3115 [1983]), generating that fragment. (10⁻⁵ M Peninsula Labs). Experiments were also carried out with (DPro², DTrp^7,9)-substance P (10⁻⁵ M) (Peninsula Labs), a substance P antagonist (Hakanson, R. et al., Br. J. Pharmac. 77: 697-700 [1982]) by adding the antagonist after the response to substance P (10⁻⁶ M) and leu-thiorphan (10⁻⁵ M) reached a plateau.
Data were expressed as mean ± SE. For the dose-response curves to substance P, the means between two groups at each concentration were compared by a paired t test. For the studies of electrical field stimulation, responses were compared by one way analysis of variance and Newman-Keuls multiple range test. Significance was accepted at P < 0.05. […]

[3] = system: longitudinal ileal smooth muscle; test: Contraction of longitudinal ileal smooth muscle; assay type: cell-based, ferrets; settings: inhibitor 10⁻⁵ M
Text: Using methods similar to those with ferret airway smooth muscle, described in Example 7, longitudinal ileal smooth muscle was examined. […] Leu-thiorphan (10⁻⁵ M) shifted the dose response curve to lower concentrations by 1 log unit.

[4] = system: ferret tracheal smooth muscle; test: Electrical field stimulation-induced contraction of isolated tracheal smooth muscle; assay type: cell-based; settings: 5 Hz; leu-thiorphan 10⁻⁵ M, 15 min
Description: as §1
Increasing concentrations of leu-thiorphan (10⁻¹¹ to 10⁻⁴ M) were added and the stimuli repeated to determine whether leu-thiorphan modulated electrical field stimulation-induced contractions. […] After determining control responses to electrical field stimulation (5 Hz), leu-thiorphan (10⁻⁵ M; 15 min) was added, the stimulus repeated, (DPro²,DTrp^7,9)substance P, the substance P antagonist (10⁻⁵ M; 15 min; Peninisula Labs) was added, and the stimulus was repeated.
Data were expressed as mean ± SE. For the dose-response curves to tachykinins the means between two groups at each concentration were analyzed by an unpaired t test. For the study of electrical field stimulation, responses were compared by one way analysis of variance and Newman-Keuls multiple range test. Significance was accepted at p<0.05.

enkephalinase = molecular target: T2, enkephalinase (Mustela putorius furo, UniProt M3XUG8); test: Enkephalinase activity of tissue membrane fractions: cleavage of (3H-Tyr1,DAla2,Leu5)enkephalin, inhibition by inhibitors and substrates; assay type: biochemical, ferret
T2 sequence (M3XUG8 2-749): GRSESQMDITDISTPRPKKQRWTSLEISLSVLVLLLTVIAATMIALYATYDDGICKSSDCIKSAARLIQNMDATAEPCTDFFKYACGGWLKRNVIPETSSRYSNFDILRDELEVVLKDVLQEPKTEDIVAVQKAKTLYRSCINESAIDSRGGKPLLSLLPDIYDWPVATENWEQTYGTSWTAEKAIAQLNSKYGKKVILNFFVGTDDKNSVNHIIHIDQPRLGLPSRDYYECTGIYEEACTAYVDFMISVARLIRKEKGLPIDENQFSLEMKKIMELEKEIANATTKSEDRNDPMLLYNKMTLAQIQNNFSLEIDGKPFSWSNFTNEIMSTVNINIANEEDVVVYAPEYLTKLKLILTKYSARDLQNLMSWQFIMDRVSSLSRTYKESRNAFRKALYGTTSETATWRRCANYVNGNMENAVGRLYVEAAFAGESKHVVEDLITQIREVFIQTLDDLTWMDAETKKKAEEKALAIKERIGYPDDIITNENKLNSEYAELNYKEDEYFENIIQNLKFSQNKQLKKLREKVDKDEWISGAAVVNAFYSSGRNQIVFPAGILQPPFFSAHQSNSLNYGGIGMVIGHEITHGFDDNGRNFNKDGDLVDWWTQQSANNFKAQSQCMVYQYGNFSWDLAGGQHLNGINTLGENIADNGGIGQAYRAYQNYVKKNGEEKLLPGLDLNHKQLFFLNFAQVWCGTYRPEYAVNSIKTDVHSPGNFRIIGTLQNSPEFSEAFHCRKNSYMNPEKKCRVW
Description: In this series of experiments, the tissue locations of enkephalinase were determined. Enkephalinase was purified from the ferret kidney to near homogeneity using published methods (Malfroy and Schwartz, Supra). Enkephalinase activity in membrane fractions derived from the vagus nerve, tracheal epithelium, submucosa, muscle, lungs, and kidneys of ferrets was determined. Ferrets were anesthetized, and the vagi, trachea, lungs, and kidneys removed. The tracheal epithelium, submucosa, and muscle were separated from each other by incubating the trachea in Ca⁺⁺-free medium for 15 minutes, after which time, the epithelium was easily removed. The muscle was then separated from the gland-containing submucosa. Each tissue was minced and then homogenized in 50mM HEPES buffer (pH 7.4) using a Polytron homogenizer.
Enkephalinase activity was measured by determining the rates of cleavage of (³H-Tyr¹, DAla², Leu⁵)enkephalin (Research Products International) by membrane fractions or purified enkephalinase. Fifty µl of membrane fraction was incubated for 40 minutes at room temperature with 50 µl of buffer containing (³H-Tyr¹, DAla²,Leu⁵)enkephalin (20nM), after which time the reaction was quenched by adding 50 µl of 2N HCl.
Seventy-five µl of this solution was applied to columns containing polystyrene beads (Poropak-Q); the characteristic metabolite, ³H-Tyr-DAla-Gly, eluted with water, and the radioactivity determined. The protein concentrations were determined by the Bradford procedure (Bradford, M.M. Analytical Biochem. 72:248-254 [1976]), and results of enkephalinase activities were expressed as fmoles substrate cleaved per min per mg protein.

| Compound | fraction of the peptide degraded / hydrolyzed [1] | effect alone on resting tension ([2]; 10⁻⁵ M) | effect on resting tension ([2]; concentrations up to 10⁻⁴ M) | shift of the dose-response curve to neurokinin A to lower concentrations ([2]; inhibitor 10⁻⁵ M) | shift of the dose-response curve to neurokinin B to lower concentrations ([2]; inhibitor 10⁻⁵ M) | shift of the dose-response curve to substance P to lower concentrations ([2]; inhibitor 10⁻⁵ M) | shift of the dose response curve to substance P to lower concentrations [3] | response to electrical field stimulation, percent of control responses without added drugs [4] | Ki (enkephalinase; Epthelium membrane fraction) | Ki (enkephalinase; Kidney) | Ki (enkephalinase; Lung membrane fraction) | Ki (enkephalinase; Muscle membrane fraction) | Ki (enkephalinase; Submucosa membrane fraction) | Ki (enkephalinase; Vagus/N. membrane fraction) |
| --- | --- | --- | --- | --- | --- | --- | --- | --- | --- | --- | --- | --- | --- | --- |
| bombesin | 80% |  |  |  |  |  |  |  |  |  |  |  |  |  |
| CC(C)C[C@H](NC(=O)C(CS)Cc1ccccc1)C(=O)O (some centres unmarked) [leu-thiorphan, Leucine-thiorphan] |  | no significant effect on resting tension | did not alter resting tension in any experiment | two-log units | three-log units | approximately one log unit; also recorded: approximately one-log unit | 1 log unit | 118 ± 1.7% | 8.7 nM | 3.3 nM | 2.8 nM | 2.1 nM | 2.8 nM | 2.1 nM |
